# Measured values: patent US11655232B2 (Celgene Corporation, priority 2003, dated 2023)
# Where two headings read alike, the source gives them in different places.
# Assays:
# [1] = Intrinsic dissolution (Woods apparatus); type: physicochemical
# Protocol: Dissolution experiments were carried out in a VanKel VK6010-8 dissolution apparatus equipped with a VK650A heater/circulator. An intrinsic dissolution apparatus (Woods apparatus) was used. Samples were compressed at 1.5 metric tons (1000 psi) for 1 min using the Woods apparatus in a hydraulic press, giving a sample surface of 0.50 cm^2. […] The medium was degassed by vacuum filtration through a 0.22-μm nylon filter disk and maintained at 37° C. The apparatus was rotated at 50 rpm for each experiment. Aliquots were filtered immediately using 0.2-μm nylon syringe filters. In some cases, the undissolved solids were recovered and analyzed by X-ray powder diffraction (XRPD).
# Diffracted radiation was detected by a NaI scintillation detector.
# [2] = Moisture sorption/desorption; type: physicochemical
# Protocol: Moisture sorption/desorption data were collected on a VTI SGA-100 moisture balance system. For sorption isotherms, a sorption range of 5 to 95% relative humidity (RH) and a desorption range of 95 to 5% RH in 10% RH increments was used for analysis. The sample was not dried prior to analysis. Equilibrium criteria used for analysis were less than 0.0100 weight percent change in 5 minutes with a maximum equilibration time of 3 hours if the weight criterion was not met. Data were not corrected for the initial moisture content of the samples.
# [3] = Temperature/relative humidity stress storage; type: physicochemical
# [4] = Desolvation by heating; type: physicochemical; conditions: about 125° C. for about five minutes
# [5] = pH 1.8
# Protocol: (§1) A solid sample of 400-450 mg was stirred in 50 mL of dissolution medium (HCl buffer, pH 1.8, with 1% sodium lauryl sulfate) using a mechanical stir rod. Aliquots were filtered using 0.2-μm nylon syringe filters and immediately diluted 1 mL→50 mL, then 5 mL→25 mL with dissolution medium in Class A glassware, a final dilution factor of 250.
# (§2) Dissolution and solubility samples solutions were analyzed by a Beckman DU 640 single-beam spectrophotometer. A 1.000-cm quartz cuvette and an analysis wavelength of 228.40 nm were utilized. The detector was zeroed with a cuvette filled with dissolution medium.
# (§3) XRPD analyses were carried out on a Shimadzu XRD-6000 X-ray powder diffractometer using Cu Kα radiation. The instrument is equipped with a fine focus X-ray tube. The tube power and amperage were set at 40 kV and 40 mA, respectively. The divergence and scattering slits were set at 1° and the receiving slit was set at 0.15 mm. Diffracted radiation was detected by a NaI scintillation detector. A theta-two theta continuous scan at 3°/min (0.4 sec/0.02° step) from 2.5 to 40°2θ was used. A silicon standard was analyzed each day to check the instrument alignment. Samples were packed in an aluminum holder with silicon insert.
# [6] = physchem; conditions: 25 °C, pH 1.8, aqueous with cosolvent or surfactant or cyclodextrin, thermodynamic from solid
# Protocol: as §1, §2, §3
smiles,measurement,setting,value
"Nc1cccc2c1CN(C1CCC(=O)NC1=O)C2=O (stereo not shown) [Form E, 3-(4-amino-1-oxo-1,3 dihydro-isoindol-2-yl)-piperidine-2,6-dione]",Cumulative Amount Dissolved per Unit Area,"[1]; Experiment #1, 5 min",2.70 mg/cm2
same,Cumulative Amount Dissolved per Unit Area,"[1]; Experiment #1, 10 min",4.13 mg/cm2
same,Cumulative Amount Dissolved per Unit Area,"[1]; Experiment #1, 20 min",6.96 mg/cm2
same,Cumulative Amount Dissolved per Unit Area,"[1]; Experiment #1, 30 min",9.60 mg/cm2
same,Cumulative Amount Dissolved per Unit Area,"[1]; Experiment #1, 45 min",12.57 mg/cm2
same,Cumulative Amount Dissolved per Unit Area,"[1]; Experiment #1, 60 min",15.16 mg/cm2
same,Cumulative Amount Dissolved per Unit Area,"[1]; Experiment #1, 90 min",20.82 mg/cm2
same,Cumulative Amount Dissolved per Unit Area,"[1]; Experiment #2, 5 min",3.06 mg/cm2
same,Cumulative Amount Dissolved per Unit Area,"[1]; Experiment #2, 10 min",4.31 mg/cm2
same,Cumulative Amount Dissolved per Unit Area,"[1]; Experiment #2, 20 min",11.40 mg/cm2
same,Cumulative Amount Dissolved per Unit Area,"[1]; Experiment #2, 30 min",11.93 mg/cm2
same,Cumulative Amount Dissolved per Unit Area,"[1]; Experiment #2, 45 min",14.72 mg/cm2
same,Cumulative Amount Dissolved per Unit Area,"[1]; Experiment #2, 60 min",18.52 mg/cm2
same,Cumulative Amount Dissolved per Unit Area,"[1]; Experiment #2, 90 min",26.24 mg/cm2
same,Cumulative Amount Dissolved per Unit Area,"[1]; Experiment #2, 120 min",33.56 mg/cm2
same,Cumulative Amount Dissolved per Unit Area,"[1]; Experiment #2, 150 min",40.82 mg/cm2
same,dissolution rates (estimated),"[1]; HCl buffer pH 1.8, 1% sodium lauryl sulfate",0.23 mg/cm²/min
same,Final Form of undissolved solids after intrinsic dissolution (XRPD),"[1]; HCl buffer pH 1.8, 1% sodium lauryl sulfate, 37° C.",did not change
same,Average Intrinsic Dissolution Rate,[1]; average of experiments #1 and #2,0.23 mg per cm^2 per minute
same,Intrinsic Dissolution #1 (rate),"[1]; experiment #1, 900 mL HCl buffer pH 1.8, 1% sodium lauryl sulfate, 37° C., 50 rpm",0.21 mg per cm^2 per minute
same,Intrinsic Dissolution #2 (rate),"[1]; experiment #2, HCl buffer pH 1.8, 1% sodium lauryl sulfate, 37° C., 50 rpm",0.25 mg per cm^2 per minute
same,weight lost from start to finish,[2]; at 5% relative humidity after drying from 95% back down to 5%,about 0.0528 % by weight
same,weight gain on moisture sorption,[2]; from 5 to 95% relative humidity,does not exhibit a significant weight change
same,form after stress storage,"[3]; about 85 days, room temperature/0% RH and 40° C./93% RH",typically does not convert to a different form
same,form after stress storage,[3]; seven days at room temperature/0% RH,"can convert to a new form, Form H"
same,form after heating (desolvation),[4],can convert to Form B
same,Solubility,[5],4700 µg/mL
same,Solubility,[6],4700 µg/mL
